Patent publication US20060025478A1, “Medicine for prevention or treatment of diabetes” (priority 2004, published 2006)

Test system: C57BL/KsJ db/db mice
Test: Hypoglycemic effect of single or combined administration in db/db mice (plasma glucose concentration)
Type: in vivo, mouse
Conditions: for Decreasing effect for the plasma glucose concentration (in words) / Relative index (mean plasma glucose of group / mean of control group) / Decreasing rate (of plasma glucose concentration vs control group): 14th day; for Decreasing effect for the plasma glucose concentration (in words): compared with db/+m normal mouse (187±16); for Relative index (mean plasma glucose of group / mean of control group) / Decreasing rate (of plasma glucose concentration vs control group) / Plasma glucose concentration: oral once a day for 14 days; for Decreasing rate (of plasma glucose concentration vs control group): (control mean − group mean)/control mean ×100; for Plasma glucose concentration: plasma 2 hours after administration on the 14th day, mean±standard deviation for 6 mice, control group 499 ± 81
Method: As test animals, C57BL/KsJ db/db mice were used, which were created in Jackson Laboratory (USA) and known as an obesity, hyperlipemia, hyperinsulinemia, and insulin-resistant model (Journal of Clinical Investigation, 85, pp 962-967, 1990). Blood was collected from the orbital venous plexus of each 7-week-old db/db mouse using a heparin-treated capillary tube, and centrifugation was performed to collect plasma. Thereafter, the plasma glucose concentration (Glucose CII-Test Wako (Wako Pure Chemical Industries, Ltd.)), the insulin concentration (Lebis Insulin Kit: for mouse-T (SHIBAYAGI)), and the triglyceride concentration (Triglyceride E-Test Wako (Wako Pure Chemical Industries, Ltd.)) were measured for classification. The classification was performed so that distribution of each measurement item is uniform for each group by block allocation based on many variables in which the plasma glucose concentration is most emphasized using the measured values of the plasma glucose concentration, the body weight, the insulin concentration, and the triglyceride concentration. […] Two hours after the administration of the medicines on the 14th day from the beginning day of the administration, blood was collected from the orbital venous plexus, and the plasma thereof was collected to measure the plasma glucose concentration. […] Each plasma glucose concentration is expressed as mean±standard deviation for 6 mice of each group. Each decreasing rate is calculated from ((mean of plasma glucose concentration of control group)−(mean of plasma glucose concentration of each group))/(mean of plasma glucose concentration of control group)×100, while each relative index is calculated from (mean of plasma glucose concentration of each group)/(mean of plasma glucose concentration of control group)

CCc1ccc(CCOc2ccc(CC3SC(=O)NC3=O)cc2)nc1.Cl (centres unmarked) [Pioglitazone hydrochloride, 5-[4-[2-(5-Ethyl-2-pyridyl)ethoxy]benzyl]thiazolidine-2,4-dione hydrochloride]
Decreasing effect for the plasma glucose concentration (in words): insufficient | Relative index (mean plasma glucose of group / mean of control group): 0.80 | Decreasing rate (of plasma glucose concentration vs control group): 20% | Plasma glucose concentration: 401 ± 173 mg/dL

O=C([O-])C(Cl)(Cl)CCCCCCCCCCc1ccc(Cl)cc1.[Na+] [sodium 2,2-dichloro-12-(4-chlorophenyl)-dodecanoate]
Decreasing effect for the plasma glucose concentration (in words): insufficient | Relative index (mean plasma glucose of group / mean of control group): 0.92 | Decreasing rate (of plasma glucose concentration vs control group): 8% | Plasma glucose concentration: 459 ± 77 mg/dL
